TGI and GI50 data for ten compounds are collected here from PubChem BioAssay (NCI).

Several values for one entry are separate records, joined by “and”; a condition that tells them apart may be missing. Equal values may be shown once.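 Step 1: Grow cells in 96-well plates. Step 2: Expose to compound for 48 hours at 5 concentrations. Step 3: Interpolate endpoints linearly; if unreached, use highest concentration. GI50: concentration for 50% inhibition of growth. At the TGI there is no net growth.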

Test systems include CAKI-1 renal; HOP-62 NSCLC; KM12 colon; M14 melanoma; NCI-H460 lung; OVCAR-5 ovarian; RPMI-8226 leukemia; SF-295 CNS; SNB-75 CNS; U251 CNS.
Holding throughout (experiment): NCI tumour cell line growth inhibition, 48 h

In the case of `COc1cccc2c1C(=O)c1c(O)c3c(c(O)c1C2=O)C[C@@](O)(C(C)=O)C[C@@H]3OC1OC(C)C(O)C(N)C1Br` (stereo partly drawn), the TGI was 0.257 µM with CAKI-1 renal; 0.0785 µM and 0.236 µM in the experiment on HOP-62 NSCLC; 0.426 µM and 0.453 µM in the experiment with KM12 colon; 0.257 µM and 0.669 µM in the experiment with M14 melanoma; 0.115 µM and 0.118 µM in the experiment on NCI-H460 lung; 0.663 µM and 0.704 µM in the experiment on OVCAR-5 ovarian. Moreover, the TGI in the experiment on RPMI-8226 leukemia was 0.702 µM and 0.263 µM; in the experiment with SF-295 CNS it was 0.419 µM and 0.194 µM; in the experiment with U251 CNS, 1.07 µM and 2.21 µM. In addition, the GI50 with KM12 colon is 0.0797 µM; with M14 melanoma, 0.0535 µM; in the experiment on OVCAR-5 ovarian, 0.0554 µM; with RPMI-8226 leukemia, 0.0124 µM; in the experiment with SF-295 CNS, 0.0159 µM; with SNB-75 CNS, 0.151 µM.
With `CN1C/C=C\CCOc2cccc(c2)-c2ccnc(n2)Nc2cccc(c2)C1`, the GI50 with CAKI-1 renal is 0.0373 µM; in the experiment on HOP-62 NSCLC, 0.0482 µM; with KM12 colon, 0.0377 µM; in the experiment with M14 melanoma, 0.0644 µM; in the experiment with NCI-H460 lung, 0.0398 µM; in the experiment on OVCAR-5 ovarian, 0.0369 µM. The GI50 is 0.0804 µM in the experiment on RPMI-8226 leukemia, 0.0616 µM in the experiment on SF-295 CNS, 0.0545 µM in the experiment on SNB-75 CNS and 0.0374 µM in the experiment with U251 CNS. Also, the TGI came out at 1.52 µM in the experiment on CAKI-1 renal; 0.402 µM in the experiment with HOP-62 NSCLC; 0.506 µM in the experiment with KM12 colon; 0.346 µM in the experiment with M14 melanoma; 1.14 µM in the experiment with NCI-H460 lung; 0.318 µM with RPMI-8226 leukemia. Further, the TGI amounted to 1.1 µM in the experiment with SF-295 CNS, 0.169 µM in the experiment with SNB-75 CNS and 0.678 µM in the experiment on U251 CNS.
Turning to `NC(N)=N/N=C(\c1nc2ccc([N+](=O)[O-])cc2[nH]c1=O)C(O)c1ccc([N+](=O)[O-])cc1` (stereo not drawn), the TGI with CAKI-1 renal, with HOP-62 NSCLC, with KM12 colon, with M14 melanoma, in the experiment on NCI-H460 lung and with OVCAR-5 ovarian was greater than 100 µM each time. The TGI with RPMI-8226 leukemia, with SF-295 CNS, in the experiment on SNB-75 CNS and in the experiment with U251 CNS was greater than 100 µM each time.
Regarding `NCC1Nc2ccccc2[C@@H](O)C1O` (stereo partly drawn), the TGI in the experiment on CAKI-1 renal, in the experiment with HOP-62 NSCLC, in the experiment with KM12 colon, in the experiment with M14 melanoma, in the experiment on NCI-H460 lung and in the experiment with OVCAR-5 ovarian was greater than 100 µM in each case. In addition, the TGI in the experiment with RPMI-8226 leukemia, with SF-295 CNS, with SNB-75 CNS and in the experiment with U251 CNS was greater than 100 µM in each case.
`CC(=O)/C(C)=N/NC(=O)c1ccccc1O`: the GI50 in the experiment on CAKI-1 renal, with HOP-62 NSCLC, with KM12 colon, in the experiment with M14 melanoma, in the experiment with NCI-H460 lung and with OVCAR-5 ovarian was greater than 100 µM in each case. For the same compound, the GI50 in the experiment on RPMI-8226 leukemia, with SF-295 CNS, in the experiment on SNB-75 CNS and in the experiment on U251 CNS was greater than 100 µM each time. Also, the TGI in the experiment on CAKI-1 renal, with HOP-62 NSCLC, in the experiment with KM12 colon, in the experiment with M14 melanoma, with NCI-H460 lung and with OVCAR-5 ovarian was greater than 100 µM in each case. For the same compound, the TGI in the experiment with RPMI-8226 leukemia, in the experiment with SF-295 CNS, in the experiment with SNB-75 CNS and in the experiment on U251 CNS was greater than 100 µM each time.
Turning to `NCCCCN(CCCN)/[N+]([O-])=N\O`, the TGI in the experiment on CAKI-1 renal, in the experiment on HOP-62 NSCLC, in the experiment with KM12 colon, with M14 melanoma, in the experiment with NCI-H460 lung and with OVCAR-5 ovarian was greater than 100 µM each time. Moreover, the TGI in the experiment with RPMI-8226 leukemia, in the experiment with SF-295 CNS, in the experiment with SNB-75 CNS and in the experiment with U251 CNS was greater than 100 µM in each case.
Turning to `N=C1C(c2nc3ccccc3s2)=C(O)CN1c1cc(C(F)(F)F)ccc1Cl`, the GI50 was 4.7 µM with CAKI-1 renal; 18.4 µM in the experiment with HOP-62 NSCLC; 20.5 µM in the experiment on KM12 colon; 3.21 µM in the experiment on M14 melanoma; 13.3 µM in the experiment on NCI-H460 lung; 70.2 µM with OVCAR-5 ovarian. The GI50 with RPMI-8226 leukemia was 7.46 µM; with SF-295 CNS it was 16.2 µM; with SNB-75 CNS, 24.1 µM; in the experiment on U251 CNS it was 9.55 µM. For the same compound, the TGI is 40.4 µM with CAKI-1 renal; greater than 100 µM in the experiment with HOP-62 NSCLC; greater than 100 µM in the experiment on KM12 colon; 11.1 µM in the experiment on M14 melanoma; 77.9 µM with NCI-H460 lung; greater than 100 µM in the experiment on OVCAR-5 ovarian. The TGI with RPMI-8226 leukemia was 53 µM; in the experiment with SF-295 CNS, greater than 100 µM; in the experiment on SNB-75 CNS, greater than 100 µM; in the experiment with U251 CNS it was greater than 100 µM.
As for `Cc1cn(C2CC(N(O)Cc3ccccc3)C(CO[Si](C)(C)C(C)(C)C)O2)c(=O)[nH]c1=O` (stereo not drawn), the TGI is 76.1 µM and 31.1 µM with CAKI-1 renal; 36.5 µM and 29.9 µM in the experiment on HOP-62 NSCLC; 51.7 µM and 31 µM with KM12 colon; 39 µM and 30.6 µM in the experiment on M14 melanoma; 33.3 µM and 32.2 µM in the experiment on NCI-H460 lung; 42.8 µM and 32.7 µM with OVCAR-5 ovarian. The TGI in the experiment with RPMI-8226 leukemia was greater than 100 µM; with SF-295 CNS, 39.6 µM and 31 µM; in the experiment with SNB-75 CNS, > 100 µM and 29.8 µM; in the experiment with U251 CNS, 38.6 µM and 28.4 µM. Moreover, the GI50 in the experiment with SNB-75 CNS was 39 µM and 16.2 µM.
Consider `COc1cc2c(c(OC)c1OC)-c1ccc(OC)c(=O)cc1[C@@H](NC(=O)c1ccccc1)CC2`, for which the GI50 in the experiment on CAKI-1 renal is 0.029 µM; in the experiment with HOP-62 NSCLC, less than 0.003 µM; in the experiment on NCI-H460 lung it was 0.00614 µM and < 0.0126 µM; in the experiment on OVCAR-5 ovarian, less than 0.003 µM; with SF-295 CNS, 0.00623 µM. Further, the TGI in the experiment with CAKI-1 renal was 30 µM and 61.2 µM; in the experiment on HOP-62 NSCLC, 30 µM and > 100 µM; with KM12 colon it was 1.14 µM; with M14 melanoma, 8.46 µM; in the experiment with OVCAR-5 ovarian, 30 µM and > 94.1 µM; with RPMI-8226 leukemia, greater than 80.7 µM. Moreover, the TGI in the experiment with SNB-75 CNS is 33.8 µM; in the experiment on U251 CNS, 4.06 µM.
As to `O=C1OC(c2ccccc2)=N/C1=C\c1cccc2ccccc12`, the TGI with CAKI-1 renal, in the experiment with HOP-62 NSCLC, in the experiment with KM12 colon, in the experiment on M14 melanoma, in the experiment on NCI-H460 lung and with OVCAR-5 ovarian was greater than 100 µM each time. For the same compound, the TGI in the experiment on RPMI-8226 leukemia, with SF-295 CNS, in the experiment with SNB-75 CNS and with U251 CNS was greater than 100 µM each time.
